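1) Cells in 96-well plates. 2) Compound, 48 h, 5 concentrations. 3) Linear interpolation between surrounding doses. 4) Unreached endpoint = highest concentration. The concentration for 50% growth inhibition is given as GI50. TGI denotes the concentration required for complete inhibition of growth.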
What was measured:
Assay in all cases: inhibition of tumour cell growth, NCI panel, 48 h
A549 NSCLC = tested on: A549 NSCLC
ACHN renal = tested on: ACHN renal
HOP-62 NSCLC = tested on: HOP-62 NSCLC
HS 578T breast = tested on: HS 578T breast
M14 melanoma = tested on: M14 melanoma
MOLT-4 leukemia = tested on: MOLT-4 leukemia
NCI-H460 lung = tested on: NCI-H460 lung
NCI-H522 lung = tested on: NCI-H522 lung
RPMI-8226 leukemia = tested on: RPMI-8226 leukemia
UACC-62 melanoma = tested on: UACC-62 melanoma

SMILES	TGI (A549 NSCLC) [µM]	TGI (ACHN renal) [µM]	TGI (HOP-62 NSCLC) [µM]	TGI (HS 578T breast) [µM]	TGI (M14 melanoma) [µM]	TGI (MOLT-4 leukemia) [µM]	TGI (NCI-H460 lung) [µM]	TGI (NCI-H522 lung) [µM]	TGI (RPMI-8226 leukemia) [µM]	TGI (UACC-62 melanoma) [µM]	GI50 (A549 NSCLC) [µM]	GI50 (NCI-H460 lung) [µM]	GI50 (UACC-62 melanoma) [µM]	GI50 (ACHN renal) [µM]	GI50 (M14 melanoma) [µM]	GI50 (MOLT-4 leukemia) [µM]	GI50 (NCI-H522 lung) [µM]	GI50 (RPMI-8226 leukemia) [µM]	GI50 (HS 578T breast) [µM]
N#C/C=C1\C=CC(O)C(O)C1OC1OC(CO)C(O)C(O)C1O (centres undefined)	> 100	> 100	> 100	> 100	> 100	> 100	> 100	> 100	> 100	> 100									
O=S(=O)(c1ccc(I)cc1)N(c1ccccc1)S(=O)(=O)C(F)(F)C(F)(F)C(F)(F)C(F)(F)F	> 100	> 100	66.6	99.5	> 100	> 100	> 100	84.9	> 100	> 100									
O=S(=O)(O)c1c(N=Nc2c(O)ccc3ccccc23)ccc2ccccc12	> 100		> 100	> 100	> 100	> 100		> 100	> 100	> 100									
O=C(O)C1CC(c2ccccc2)=NN1c1ccccc1 (centres undefined)	> 100	> 100	> 100	81.6	> 100	> 100	> 100	> 100	> 100	> 100									
COc1cccc(-c2nc3c(C(=O)NCCN(C)C)cccc3[nH]2)c1	46.2		33.2			24.4	34.6	34	46.3	31.8									
O=C1/C(=C\c2ccc(-c3ccc(Cl)cc3Cl)o2)SC2N=C(COc3ccc(Cl)cc3)NN12 (centres undefined)	> 100	> 100	> 100	87.8	> 100	> 100	> 100	> 100	> 100	> 100									
S=C1N(c2ccc(Cl)cc2)C2=C(N=Nc3ccccc3)C(=Nc3ccccc3S2)N1c1ccccn1	29.1	27.5	33.7	32.7	26.6	31.7	25.7		43.6										
[C-]#[O+].[C-]#[O+].[Ir].[O-]c1cccc2cccnc12	> 100						> 100			> 100	> 100	> 100	> 100						
O=S(O)c1cc(Cl)cc(Cl)c1O		> 100	> 100		> 100	> 100	> 100	> 100		> 100									
COc1ccc(SC(C)(SC)c2ccccn2)c(OC)n1 (centres undefined)	> 100	> 100	> 100	> 100	> 100	> 100	> 100	> 100	73.4	> 100									
Oc1cc2cccc[n+]2c2cccc(Cl)c12		52.5										82.1	32.6	21.7	66.8	34.9	94.8	40.4	
c1ccc2sc(C3(N4CCCCC4)CCCC3)cc2c1	22.3	21	28.8	33.4	33.1	19.8	20.7	24.8	10.4	29.4									
CC1(C)COC(/C=C/C2=NC(C)(C)CO2)=N1	> 100	57.3	55.2	23.1	31.4	36.1	> 100	13.4	26.2	31.4									
O=C1c2ccccc2-c2ccc(N=[N+]([O-])c3ccc4c(c3)C(=O)c3ccccc3-4)cc21	> 100	> 100	> 100	> 100	> 100	> 100	> 100	> 100	> 100	> 100									
CC(O)C(O)C(N)CC=O (centres undefined)	> 500		> 500			> 500	> 500	> 500	> 500	> 500									
COC(=O)C1=CC[C@@H]2C(C(=O)O)=CO[C@@H](OC3OC(CO)C(O)C(O)C3O)[C@H]12 (some centres undefined)	> 300		> 300			> 300	> 300	> 300	> 300	> 300									
O=C(/C=C/c1ccc(O)cc1)NCCc1ccc(O)cc1	> 12.5	> 12.5	> 12.5	> 12.5	> 12.5		> 12.5	> 12.5	> 12.5	> 12.5									
CC(=O)OCC1OC(O[C@@H]2c3c(O)c4c(c(O)c3C3=C(NN(c5ccc([N+](=O)[O-])cc5[N+](=O)[O-])[Se]3=O)[C@@]2(C)O)C(=O)c2ccccc2C4=O)C(OC(C)=O)C(OC(C)=O)C1OC(C)=O (some centres undefined)	2.07	0.607	0.714	0.927	1.6	0.23	0.72	0.29	0.372	0.936									
CN(C)Cc1ccc(C(=O)Nc2ccc3ncnc(Nc4ccc(Oc5cccc(F)c5)c(Cl)c4)c3c2)cc1		2.36				3.21	3.31			3.23		1.76	1.77	1.15		1.55			
C[N+]1(C)CCC(C#N)(c2ccccc2)CC1	> 100	> 100	> 100	> 100	> 100	> 100	> 100		> 100										
CC(C)C(N=Cc1ccccc1O)C(=O)O (centres undefined)	> 100	> 100	> 100	> 100	> 100	> 100	> 100	> 100	> 100	> 100									
Fc1ccc(-c2ccc(-c3nnc(-c4cc(F)c(Cl)cc4Cl)o3)o2)cc1Cl	> 100	> 100		67.6		85.2	> 100	> 100	72.9	51.2	37.3	29.7	17.6	35.3		24.2	38.7	26.4	22.3
